Test results as given in ChEMBL document CHEMBL1201862, “PubChem BioAssay data set” (2004).
The source made the active and inactive calls.

How the values were obtained:
[1] = target: Cytochrome P450 2D6 (Homo sapiens, UniProt P10635);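 note: CYP2D6 member of a cytochrome P450 panel assay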
[2] = target: Cytochrome P450 3A4 (Homo sapiens, UniProt P08684);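 note: CYP3A4 tested as one member of a cytochrome P450 panel screen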
[3] = target: T1, Caspase-3 (Homo sapiens, UniProt P42574); format: functional;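 note: Dose-response selectivity test against caspase-3 for candidate inhibitors of sentrin-specific proteases (SENPs)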
T1 sequence (P42574 whole entry): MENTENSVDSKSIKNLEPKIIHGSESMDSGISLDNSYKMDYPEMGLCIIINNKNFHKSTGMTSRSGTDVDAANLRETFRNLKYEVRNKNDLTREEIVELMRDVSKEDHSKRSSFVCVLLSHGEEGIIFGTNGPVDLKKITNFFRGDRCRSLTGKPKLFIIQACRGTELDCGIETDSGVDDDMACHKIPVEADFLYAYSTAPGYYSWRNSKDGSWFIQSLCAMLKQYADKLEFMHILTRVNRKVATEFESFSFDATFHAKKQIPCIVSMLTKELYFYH

[4] = target: T2, Sentrin-specific protease 7 (Homo sapiens, UniProt Q9BQF6); format: functional;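 note: Luminescence-based dose-response confirmation of ultra-high-throughput screening hits, measuring inhibition of SENP7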
T2 sequence (Q9BQF6 whole entry): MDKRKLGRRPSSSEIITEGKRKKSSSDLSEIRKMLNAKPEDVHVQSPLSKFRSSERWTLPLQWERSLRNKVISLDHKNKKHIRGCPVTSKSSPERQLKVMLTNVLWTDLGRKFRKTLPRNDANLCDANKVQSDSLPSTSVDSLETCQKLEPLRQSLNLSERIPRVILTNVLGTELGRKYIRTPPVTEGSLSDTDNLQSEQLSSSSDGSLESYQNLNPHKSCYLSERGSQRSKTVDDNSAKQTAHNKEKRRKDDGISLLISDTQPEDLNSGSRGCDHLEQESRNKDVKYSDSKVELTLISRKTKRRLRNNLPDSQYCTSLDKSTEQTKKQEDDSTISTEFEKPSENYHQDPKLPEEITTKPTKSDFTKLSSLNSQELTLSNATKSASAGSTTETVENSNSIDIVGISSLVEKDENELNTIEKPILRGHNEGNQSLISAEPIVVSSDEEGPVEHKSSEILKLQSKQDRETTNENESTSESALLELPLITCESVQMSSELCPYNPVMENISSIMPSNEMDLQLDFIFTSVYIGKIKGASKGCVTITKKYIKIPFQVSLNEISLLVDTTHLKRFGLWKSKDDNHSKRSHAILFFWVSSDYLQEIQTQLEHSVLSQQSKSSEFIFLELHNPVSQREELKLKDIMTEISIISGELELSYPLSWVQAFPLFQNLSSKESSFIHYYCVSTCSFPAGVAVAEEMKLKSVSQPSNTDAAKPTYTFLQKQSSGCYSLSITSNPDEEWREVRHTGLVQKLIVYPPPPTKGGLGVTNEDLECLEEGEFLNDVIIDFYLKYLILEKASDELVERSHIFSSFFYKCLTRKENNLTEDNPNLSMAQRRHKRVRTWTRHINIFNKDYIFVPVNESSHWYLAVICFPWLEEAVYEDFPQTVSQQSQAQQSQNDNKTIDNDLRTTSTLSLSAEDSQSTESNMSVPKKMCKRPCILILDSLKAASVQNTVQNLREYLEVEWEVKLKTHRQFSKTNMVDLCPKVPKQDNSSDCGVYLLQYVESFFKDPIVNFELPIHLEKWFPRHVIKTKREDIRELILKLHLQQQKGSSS

[5] = target: T3, Sentrin-specific protease 6 (Homo sapiens, UniProt Q9GZR1); format: functional;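 note: Luminescence-based dose-response confirmatory assay of SENP6 inhibition, following up an ultra-high-throughput screen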
T3 sequence (Q9GZR1 whole entry): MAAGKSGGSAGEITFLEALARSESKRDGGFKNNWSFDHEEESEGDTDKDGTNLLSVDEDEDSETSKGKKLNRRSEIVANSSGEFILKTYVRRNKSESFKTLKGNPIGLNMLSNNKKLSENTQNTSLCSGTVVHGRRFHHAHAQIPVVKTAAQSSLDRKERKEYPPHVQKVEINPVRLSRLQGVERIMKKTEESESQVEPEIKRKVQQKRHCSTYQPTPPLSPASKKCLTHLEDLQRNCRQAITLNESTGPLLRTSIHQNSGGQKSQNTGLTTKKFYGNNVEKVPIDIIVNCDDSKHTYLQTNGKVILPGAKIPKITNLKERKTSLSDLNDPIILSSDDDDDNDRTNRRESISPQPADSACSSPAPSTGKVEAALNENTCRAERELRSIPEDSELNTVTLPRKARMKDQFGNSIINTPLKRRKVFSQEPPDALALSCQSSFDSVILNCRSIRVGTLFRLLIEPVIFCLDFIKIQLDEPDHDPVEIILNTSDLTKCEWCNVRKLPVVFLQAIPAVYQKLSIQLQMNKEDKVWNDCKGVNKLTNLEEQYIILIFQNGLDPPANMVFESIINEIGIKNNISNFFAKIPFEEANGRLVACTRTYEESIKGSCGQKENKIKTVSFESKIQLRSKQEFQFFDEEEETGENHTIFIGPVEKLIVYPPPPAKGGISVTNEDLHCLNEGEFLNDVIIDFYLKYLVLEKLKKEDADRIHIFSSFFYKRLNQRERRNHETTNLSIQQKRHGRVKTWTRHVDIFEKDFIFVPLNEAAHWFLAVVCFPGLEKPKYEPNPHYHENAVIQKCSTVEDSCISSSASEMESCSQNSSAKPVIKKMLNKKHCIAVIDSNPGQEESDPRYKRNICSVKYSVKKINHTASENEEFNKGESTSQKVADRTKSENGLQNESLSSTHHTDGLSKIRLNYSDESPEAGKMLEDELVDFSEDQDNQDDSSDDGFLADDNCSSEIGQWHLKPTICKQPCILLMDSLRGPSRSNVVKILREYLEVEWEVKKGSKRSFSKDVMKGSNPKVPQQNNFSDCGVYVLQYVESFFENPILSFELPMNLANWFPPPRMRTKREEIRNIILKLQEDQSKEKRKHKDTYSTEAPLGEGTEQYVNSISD

[6] = target: T4, Sentrin-specific protease 8 (Homo sapiens, UniProt Q96LD8); format: functional;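 note: luminescence read-out of SENP8 inhibition, dose-response confirmation following an ultra-high-throughput screen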
T4 sequence (Q96LD8 whole entry): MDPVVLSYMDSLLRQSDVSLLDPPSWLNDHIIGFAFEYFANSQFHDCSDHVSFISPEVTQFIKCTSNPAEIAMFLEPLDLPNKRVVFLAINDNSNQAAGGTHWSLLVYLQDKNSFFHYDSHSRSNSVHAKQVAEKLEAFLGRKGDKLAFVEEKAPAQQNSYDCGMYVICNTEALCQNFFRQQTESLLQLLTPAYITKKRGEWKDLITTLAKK

[7] = target: Cytochrome P450 2C19 (Homo sapiens, UniProt P33261); assay: Cytochrome panel assay with activity outcomes. Panel member name: p450-cyp2c19 Compounds with AC50 equal or less than 10 uM are considered active; format: functional; conditions: read-out: AC50
[8] = target: Cytochrome P450 2C9 (Homo sapiens, UniProt P11712)
[9] = target: Nuclear receptor subfamily 5 group A member 2 (Homo sapiens, UniProt O00482); format: functional, cell-based;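 note: HEK293T cells transfected with LRH-1 and a StAR promoter luciferase reporter; potency for inhibitors that lower LRH-1 driven reporter light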
[10] = target: Steroidogenic factor 1 (Homo sapiens, UniProt Q13285); assay: Counterscreen for inverse agonists of the liver receptor homolog-1 (LRH-1; NR5A2): Luminescence-based cell-based high throughput dose response assay to identify inverse agonists of the Steroidogenic Factor 1 Nuclear Receptor (SF1; NR5A1).; format: functional
[11] = nonselective StAR promoter luciferase inhibitors – cell-based, luminescence, luciferase reporter, counter-screen for LRH-1 inverse agonist project, dose response (AID 651969); format: functional
[12] = viability loss in HeLa cells – cytotoxicity control for MgcRacGAP inhibitor project, dose response (AID 624300); format: functional
[13] = target: T5, Cytochrome P450 1A2 (Homo sapiens, UniProt P05177);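 note: PubChem cytochrome P450 panel assay, CYP1A2 panel member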
T5 sequence (P05177 whole entry): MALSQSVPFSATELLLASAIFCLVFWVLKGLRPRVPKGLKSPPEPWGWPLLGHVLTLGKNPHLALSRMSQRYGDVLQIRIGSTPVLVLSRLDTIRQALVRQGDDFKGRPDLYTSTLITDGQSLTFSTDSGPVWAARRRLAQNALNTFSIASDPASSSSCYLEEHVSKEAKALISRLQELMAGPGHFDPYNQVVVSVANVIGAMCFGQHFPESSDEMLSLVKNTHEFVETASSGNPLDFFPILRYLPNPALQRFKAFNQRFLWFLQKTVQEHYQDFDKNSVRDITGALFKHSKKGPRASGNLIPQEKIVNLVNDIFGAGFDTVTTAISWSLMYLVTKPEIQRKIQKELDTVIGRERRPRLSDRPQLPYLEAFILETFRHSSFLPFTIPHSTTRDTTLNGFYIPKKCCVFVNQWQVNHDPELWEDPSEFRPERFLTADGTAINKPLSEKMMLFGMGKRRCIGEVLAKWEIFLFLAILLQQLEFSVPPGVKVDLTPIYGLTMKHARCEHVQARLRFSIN

[14] = target: T6, Polyadenylate-binding protein 1 (Homo sapiens, UniProt P11940); assay: MLLE binding blockers, Cy5 peptide tracer – biochemical, fluorescence polarization, Cy5-PAM2 peptide, secondary, miRNA deadenylation inhibitor project, dose response (AID 602260); format: functional; conditions: read-out: IC50_Mean
[15] = target: T6, Polyadenylate-binding protein 1; assay: MLLE domain peptide-binding blockers, IC50 – biochemical, fluorescence polarization, FITC-PAM2 peptide, dose response (AID 602259); format: functional; conditions: read-out: IC50_Mean

Nuclear receptor subfamily 5 group A member 2, sequence (O00482 whole entry): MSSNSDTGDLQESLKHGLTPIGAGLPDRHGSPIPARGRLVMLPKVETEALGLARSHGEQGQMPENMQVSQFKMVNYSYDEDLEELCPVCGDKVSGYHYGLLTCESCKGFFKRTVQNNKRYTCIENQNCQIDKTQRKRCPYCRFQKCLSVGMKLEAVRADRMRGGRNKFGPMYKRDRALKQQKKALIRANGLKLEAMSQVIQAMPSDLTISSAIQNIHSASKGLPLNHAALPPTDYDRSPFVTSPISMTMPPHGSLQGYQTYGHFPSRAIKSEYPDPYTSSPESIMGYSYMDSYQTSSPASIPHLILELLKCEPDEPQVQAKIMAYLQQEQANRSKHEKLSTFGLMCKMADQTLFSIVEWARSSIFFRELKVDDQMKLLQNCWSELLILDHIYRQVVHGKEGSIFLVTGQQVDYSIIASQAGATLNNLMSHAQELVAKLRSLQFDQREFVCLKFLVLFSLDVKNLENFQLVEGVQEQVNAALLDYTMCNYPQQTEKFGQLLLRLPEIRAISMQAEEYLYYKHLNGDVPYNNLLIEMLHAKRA
Cytochrome P450 2C19, sequence (P33261 whole entry): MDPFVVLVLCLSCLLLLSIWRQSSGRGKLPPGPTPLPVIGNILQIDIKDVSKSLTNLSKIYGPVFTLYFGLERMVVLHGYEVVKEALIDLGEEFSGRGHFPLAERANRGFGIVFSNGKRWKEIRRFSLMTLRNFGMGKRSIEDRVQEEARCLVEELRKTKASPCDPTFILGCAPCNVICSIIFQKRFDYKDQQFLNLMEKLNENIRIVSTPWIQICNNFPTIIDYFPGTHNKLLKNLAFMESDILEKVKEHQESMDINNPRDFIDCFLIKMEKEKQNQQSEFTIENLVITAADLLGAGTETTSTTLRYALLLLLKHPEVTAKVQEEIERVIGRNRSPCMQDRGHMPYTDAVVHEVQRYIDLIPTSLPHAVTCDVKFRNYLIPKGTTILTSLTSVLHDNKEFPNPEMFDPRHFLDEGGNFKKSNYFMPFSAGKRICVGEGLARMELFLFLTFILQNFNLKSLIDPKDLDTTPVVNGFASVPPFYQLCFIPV
Cytochrome P450 3A4, sequence (P08684 whole entry): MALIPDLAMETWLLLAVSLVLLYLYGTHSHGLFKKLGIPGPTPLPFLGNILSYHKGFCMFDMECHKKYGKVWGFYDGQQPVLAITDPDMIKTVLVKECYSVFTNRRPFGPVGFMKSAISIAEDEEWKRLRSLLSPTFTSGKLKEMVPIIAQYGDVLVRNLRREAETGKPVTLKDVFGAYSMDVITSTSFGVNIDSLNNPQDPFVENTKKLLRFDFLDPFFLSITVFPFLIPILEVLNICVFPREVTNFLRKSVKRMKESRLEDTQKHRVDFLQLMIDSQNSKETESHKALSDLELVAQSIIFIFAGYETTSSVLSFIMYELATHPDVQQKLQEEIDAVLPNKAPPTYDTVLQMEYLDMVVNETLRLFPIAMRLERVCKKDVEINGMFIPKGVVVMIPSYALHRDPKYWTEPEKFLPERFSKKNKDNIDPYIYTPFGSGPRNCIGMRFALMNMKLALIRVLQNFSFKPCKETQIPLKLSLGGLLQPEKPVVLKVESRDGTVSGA
Steroidogenic factor 1, sequence (Q13285 whole entry): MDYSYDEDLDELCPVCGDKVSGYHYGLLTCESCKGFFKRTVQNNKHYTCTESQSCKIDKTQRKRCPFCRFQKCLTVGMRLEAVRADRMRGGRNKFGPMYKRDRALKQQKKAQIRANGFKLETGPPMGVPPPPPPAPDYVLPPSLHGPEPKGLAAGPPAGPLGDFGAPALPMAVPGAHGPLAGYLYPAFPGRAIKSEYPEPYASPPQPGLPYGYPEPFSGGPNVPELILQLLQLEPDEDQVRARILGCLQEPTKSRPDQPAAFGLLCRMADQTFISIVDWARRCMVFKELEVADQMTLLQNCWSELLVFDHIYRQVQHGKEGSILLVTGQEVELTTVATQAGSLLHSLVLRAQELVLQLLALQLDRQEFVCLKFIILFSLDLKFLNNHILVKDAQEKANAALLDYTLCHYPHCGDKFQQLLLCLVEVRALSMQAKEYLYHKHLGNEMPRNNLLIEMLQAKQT
Cytochrome P450 2C9, sequence (P11712 whole entry): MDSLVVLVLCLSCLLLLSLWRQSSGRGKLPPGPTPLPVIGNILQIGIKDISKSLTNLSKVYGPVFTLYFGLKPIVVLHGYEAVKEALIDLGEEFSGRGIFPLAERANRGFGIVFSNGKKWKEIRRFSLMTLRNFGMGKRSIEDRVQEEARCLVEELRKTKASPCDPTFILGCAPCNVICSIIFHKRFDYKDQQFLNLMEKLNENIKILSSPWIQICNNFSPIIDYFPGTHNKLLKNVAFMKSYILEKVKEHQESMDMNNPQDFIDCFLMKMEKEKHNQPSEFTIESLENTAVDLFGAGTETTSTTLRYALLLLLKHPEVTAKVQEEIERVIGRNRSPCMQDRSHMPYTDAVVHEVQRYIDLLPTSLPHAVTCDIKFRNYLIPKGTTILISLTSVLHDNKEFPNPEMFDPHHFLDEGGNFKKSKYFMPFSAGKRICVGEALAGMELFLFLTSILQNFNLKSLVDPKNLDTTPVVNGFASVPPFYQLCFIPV
T6 sequence (P11940 whole entry, the tested form may be a part): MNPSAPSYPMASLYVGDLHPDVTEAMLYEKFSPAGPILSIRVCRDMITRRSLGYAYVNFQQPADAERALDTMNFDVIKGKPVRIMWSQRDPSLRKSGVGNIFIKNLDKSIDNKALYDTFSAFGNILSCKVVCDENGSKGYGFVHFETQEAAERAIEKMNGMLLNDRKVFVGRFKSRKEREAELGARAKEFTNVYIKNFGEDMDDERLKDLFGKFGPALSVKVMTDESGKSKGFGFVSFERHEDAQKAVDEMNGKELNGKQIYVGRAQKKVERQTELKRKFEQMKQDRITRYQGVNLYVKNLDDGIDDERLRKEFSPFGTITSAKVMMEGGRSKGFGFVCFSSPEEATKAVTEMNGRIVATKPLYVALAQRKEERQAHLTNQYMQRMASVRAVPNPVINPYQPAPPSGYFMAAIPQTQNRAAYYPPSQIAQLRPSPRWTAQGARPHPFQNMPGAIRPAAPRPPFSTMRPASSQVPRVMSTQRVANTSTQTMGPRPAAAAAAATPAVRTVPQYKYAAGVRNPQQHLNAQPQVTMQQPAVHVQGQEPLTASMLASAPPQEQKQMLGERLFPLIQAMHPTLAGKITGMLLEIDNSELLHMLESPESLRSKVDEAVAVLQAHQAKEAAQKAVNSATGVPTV
Cytochrome P450 2D6, sequence (P10635 whole entry): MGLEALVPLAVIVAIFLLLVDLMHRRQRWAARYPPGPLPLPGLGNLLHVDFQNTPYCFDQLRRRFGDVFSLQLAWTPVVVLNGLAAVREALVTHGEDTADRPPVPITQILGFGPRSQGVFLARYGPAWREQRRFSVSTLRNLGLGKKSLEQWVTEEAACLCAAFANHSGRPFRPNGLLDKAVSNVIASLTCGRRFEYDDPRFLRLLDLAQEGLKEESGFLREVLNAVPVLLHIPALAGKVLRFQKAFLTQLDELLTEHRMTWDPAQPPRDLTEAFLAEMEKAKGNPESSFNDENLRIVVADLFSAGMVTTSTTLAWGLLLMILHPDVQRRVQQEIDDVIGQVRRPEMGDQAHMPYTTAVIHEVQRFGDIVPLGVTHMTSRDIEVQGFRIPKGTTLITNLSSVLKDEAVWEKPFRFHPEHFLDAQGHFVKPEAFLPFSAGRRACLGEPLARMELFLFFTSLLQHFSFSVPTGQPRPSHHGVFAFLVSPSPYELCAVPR

AC50 [2] | IC50 [3] | IC50 [4] | IC50 [5] | SMILES | IC50 [6] | IC50 [9] | IC50 [10] | IC50 [11] | also measured
inconclusive | – | – | – | COC(=O)N1CCC2(CC1)CN(c1ccccn1)C2 | – | – | – | – | AC50 [1]: 10 µM (inconclusive)
– | 40.1 µM (active) | 7.37 µM (active) | 20.9 µM (active) | COc1cccc(C(=O)Oc2ccc3ccc(O)cc3c2)c1 | 17 µM (active) | – | – | – | –
– | – | – | – | COc1ccc(S(=O)(=O)N2CCN(CC(=O)Nc3ccc(C)c(F)c3)CC2)cc1 | – | 6.16 µM (active) | 3.05 µM (active) | 35.9 µM (inactive) | –
– | 24.6 µM (active) | 7.21 µM (active) | 7.19 µM (active) | O=C(Nc1ccc(Br)cc1)Nc1ccccc1Cl | 26.8 µM (active) | – | – | – | –
inconclusive | – | – | – | Cn1c(=O)c(-c2ccccc2)nc2cnc(N3CCOCC3)nc21 | – | – | – | – | AC50 [7]: 39.8 µM (inconclusive); AC50 [8]: 39.8 µM (inconclusive)
– | – | – | – | COC(=O)c1ccc(NC(=O)CSc2nncn2-c2cccnc2)cc1 | – | 35.9 µM (inactive) | 14 µM (inactive) | 35.9 µM (inactive) | –
– | – | – | – | CC(O)(c1cccc(F)c1)c1nc(-c2ccc(S(C)(=O)=O)cc2)cs1 (centres undefined) | – | 10.3 µM (inactive) | 3.64 µM (active) | 35.9 µM (inactive) | –
– | – | – | – | N#Cc1cc([N+](=O)[O-])ccc1NC(=O)COC(=O)C1CCC(=O)N1 (centres undefined) | – | 6.37 µM (active) | 4.87 µM (active) | 35.9 µM (inactive) | –
– | 22 µM (active) | 6.34 µM (active) | 27.4 µM (active) | COc1ccc(C(=O)CNc2ccccc2Br)cc1 | 82.8 µM (active) | – | – | – | –
– | – | – | – | CCCN1C(=O)/C(=C/c2cc(C)n(C)c2C)S/C1=N/c1ccc(OCC)cc1 | – | – | – | – | CC50 [12]: 100 µM (active)
– | – | – | – | COCCn1c(C)cc(/C=C(\C#N)C(=O)OCC(=O)Nc2ccc(S(N)(=O)=O)cc2)c1C | – | 35.9 µM (inactive) | 3.99 µM (active) | 35.9 µM (inactive) | –
inconclusive | – | – | – | O=C(c1cccc(F)c1)N1CCC2(CC1)CN(c1cccc(-c3ccccc3)c1)C2 | – | – | – | – | AC50 [13]: 12.6 µM (inconclusive)
inconclusive | – | – | – | CCOC(=O)C1=C(C)N=C2SC(C(=O)OC)=CC(=O)N2C1c1ccc(F)cc1 (centres undefined) | – | – | – | – | AC50 [1]: 12.6 µM (inconclusive); AC50 [13]: 31.6 µM (inconclusive)
– | > 100 µM (inactive) | 11.8 µM (active) | 46.9 µM (active) | O=C(Nc1cc(Cl)cc(Cl)c1)c1cccc(OC(F)F)c1 | 53.9 µM (active) | – | – | – | –
– | – | – | – | COc1ccc(C2(C)NC(=O)N(CC(=O)Nc3ccc(C)cc3Br)C2=O)cc1OC (centres undefined) | – | 35.9 µM (inactive) | 11.7 µM (inactive) | 35.9 µM (inactive) | –
– | 32 µM (active) | 8.63 µM (active) | 25 µM (active) | c1ccc(Cn2nc(-c3ccccc3)nc2-c2ccccc2)cc1 | 30.4 µM (active) | – | – | – | –
– | – | – | – | CCOc1ccc(NC(=O)CSc2nnc(C(C)C)n2CC)cc1 | – | 35.9 µM (inactive) | 6.03 µM (active) | 35.9 µM (inactive) | –
– | 34.2 µM (active) | 14.8 µM (active) | 36.7 µM (active) | O=C(CCCN1C(=O)/C(=C/c2ccccc2Cl)SC1=S)NCCCN1CCOCC1 | 43.6 µM (active) | – | – | – | IC50 [14]: > 66 µM (inactive); IC50 [15]: > 66 µM (inactive)
inconclusive | – | – | – | O=C(c1ccco1)N1CCC2(CC1)CN(c1ccc(-c3ccccc3)cc1)C2 | – | – | – | – | AC50 [7]: 0.158 µM (inconclusive); AC50 [13]: 1 µM (inconclusive)

SMILES | AC50 [2] | IC50 [3] | IC50 [4] | IC50 [5] | IC50 [6] | IC50 [9] | IC50 [10] | IC50 [11] | also measured
Oc1ccc2[nH]cc(CCCCN3CC=C(c4ccccc4)CC3)c2c1 [ROXINDOLE] | inconclusive | – | – | – | – | – | – | – | AC50 [7]: 20 µM (inconclusive); AC50 [8]: 12.6 µM (inconclusive)
